{"source": "patent US20080221060A1", "about": "“Therapeutic Compounds” (priority 2004, published 2008)", "key": {"[1]": {"system": "chronic constriction injury model of neuropathic pain", "assay": "thermal hyperalgesia, chronic constriction injury of the rat sciatic nerve", "format": "in vivo", "conditions": "rat CCI, 0.624 mg/kg p.o.", "description": "After approximately two weeks the rats developed thermal hyperalgesia in the operated leg as judged by the difference in paw withdrawal latencies of the right and left paws."}, "[2]": {"system": "chronic constriction injury model of neuropathic pain", "assay": "static allodynia, chronic constriction injury of the rat sciatic nerve", "format": "in vivo", "conditions": "rat CCI", "description": "The total dose administered is shown on the horizontal axis, and the paw withdrawal threshold (PWT) on the vertical axis."}, "[3]": {"system": "carrageenan (CGN) induced inflammation", "assay": "carrageenan induced paw inflammation (plethysmometry)", "format": "in vivo", "conditions": "rat, 62.4 and 624 μg/kg i.p.; indomethacin 3 mg/kg po as comparator", "experimental": "Carrageenan (2%, 10 microlitres) was administered into the right hind paw of a rat, and the paw volume assessed by plethysomometry. Spongosine was administered at the same time as carrageenan."}, "adenosine A1 receptor": {"molecular_target": "T1, adenosine A1 receptor (Cavia porcellus, UniProt P47745)", "T1 construct": "host or cells: guinea pig isolated heart", "T1 sequence (P47745 1-326)": "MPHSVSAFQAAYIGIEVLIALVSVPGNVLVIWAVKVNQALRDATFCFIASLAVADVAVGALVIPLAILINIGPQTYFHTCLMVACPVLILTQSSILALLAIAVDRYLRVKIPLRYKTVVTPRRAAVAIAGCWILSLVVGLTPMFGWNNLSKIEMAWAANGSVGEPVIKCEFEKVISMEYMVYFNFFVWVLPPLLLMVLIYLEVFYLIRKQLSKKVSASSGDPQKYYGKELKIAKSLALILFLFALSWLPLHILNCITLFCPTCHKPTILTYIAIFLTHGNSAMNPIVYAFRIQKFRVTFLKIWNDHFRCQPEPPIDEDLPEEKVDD", "conditions": "guinea pig; read-out: EC50, adenosine A1 receptor, isolated heart preparation; cited from earlier work"}, "[4]": {"conditions": "20 mg/kg po; cited from earlier work"}, "[5]": {"assay": "tachycardia by 12 lead ECGs in human volunteers", "format": "in vivo", "experimental": "Tachycardia was determined using 12 lead ECGs."}, "[6]": {"assay": "blood pressure and heart rate in rats (radiotelemetry)", "format": "in vivo, rat", "description": "An implantable radiotelemetry device was placed in the abdominal cavity of 6 rats per group. The pressure catheter of the device was inserted in the abdominal aorta and two electrodes tunnelised under the skin in a lead II position (left side of abdominal cavity/right shoulder). Individual rats were placed in their own cage on a radioreceptor (DSI) for data acquisition. A: blood pressure; B: heart rate."}, "rat A2A receptor": {"molecular_target": "rat A2A receptor (Rattus norvegicus, UniProt P30543)", "sequence (P30543 whole entry)": "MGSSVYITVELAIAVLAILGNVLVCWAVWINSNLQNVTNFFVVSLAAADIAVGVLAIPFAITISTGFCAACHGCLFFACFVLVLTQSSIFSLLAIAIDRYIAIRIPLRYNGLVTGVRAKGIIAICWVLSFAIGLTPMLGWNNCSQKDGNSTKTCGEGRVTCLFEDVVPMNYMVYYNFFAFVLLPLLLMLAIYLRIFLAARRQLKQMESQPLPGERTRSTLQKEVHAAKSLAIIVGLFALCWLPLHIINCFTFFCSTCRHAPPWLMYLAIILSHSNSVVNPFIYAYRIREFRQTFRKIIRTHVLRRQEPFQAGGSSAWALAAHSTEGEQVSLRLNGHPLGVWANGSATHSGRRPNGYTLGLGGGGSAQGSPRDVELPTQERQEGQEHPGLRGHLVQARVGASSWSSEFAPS", "conditions": "read-out: EC50 for stimulation of the rat A2A receptor; cited from earlier work"}, "[7]": {"assay": "plasma concentrations after single oral dosing in human volunteers", "format": "in vivo"}, "[8]": {"system": "carrageenan (CGN) induced thermal hyperalgesia", "assay": "carrageenan induced thermal hyperalgesia (CITH)", "format": "in vivo", "conditions": "0.624 mg/kg p.o.; indomethacin 3 mg/kg po as comparator", "experimental": "A. […] Carrageenan (2%, 10 microlitres) was administered into the right hind paw. A heat source was placed close to the treated and untreated hind paws, and the difference in the paw withdrawal latencies is shown. Spongosine was administered at the same time as carrageenan."}, "adenosine A2A receptor [9]": {"molecular_target": "adenosine A2A receptor (UniProt P30543)", "assay": "EC50 at the adenosine A2A receptor", "format": "biochemical", "description": "(§1) For the avoidance of doubt, the EC50 value of a compound is defined herein as the concentration of the compound that provokes a receptor response halfway between the baseline receptor response and the maximum receptor response (as determined, for example, using a dose-response curve).\n(§2) The EC50 value should be determined under standard conditions (balanced salt solutions buffered to pH 7.4). For EC50 determinations using isolated membranes, cells and tissues this would be in buffered salt solution at pH 7.4 (e.g. cell culture medium), for example as in Daly et al, Pharmacol. (1993) 46, 91-100), or preferably as in Tilburg et al (J. Med. Chem. (2002) 45, 91-100). The EC50 could also be determined in vivo by measuring adenosine receptor mediated responses in a normal healthy animal, or even in a tissue perfused under normal conditions (i.e. oxygenated blood, or oxygenated isotonic media, also buffered at pH 7.4) in a normal healthy animal."}, "[10]": {"molecular_target": "adenosine receptors (rat striatal membranes, [3H]-CGS21680) (Rattus norvegicus, UniProt P30543)", "sequence (P30543 whole entry)": "as above", "assay": "Ki from displacement of [3H]-CGS21680 in rat striatal membranes at pH 5.5 and pH 7.4", "format": "binding", "design": "from tissue; host or cells: rat striatum (membranes)", "conditions": "for Ki: 2 nM [3H]-CGS21680, 90 minutes at 22° C."}, "adenosine A2A receptor [11]": {"molecular_target": "T2, adenosine A2A receptor (Cavia porcellus, UniProt P46616)", "T2 construct": "host or cells: guinea pig isolated heart", "T2 sequence (P46616 whole entry)": "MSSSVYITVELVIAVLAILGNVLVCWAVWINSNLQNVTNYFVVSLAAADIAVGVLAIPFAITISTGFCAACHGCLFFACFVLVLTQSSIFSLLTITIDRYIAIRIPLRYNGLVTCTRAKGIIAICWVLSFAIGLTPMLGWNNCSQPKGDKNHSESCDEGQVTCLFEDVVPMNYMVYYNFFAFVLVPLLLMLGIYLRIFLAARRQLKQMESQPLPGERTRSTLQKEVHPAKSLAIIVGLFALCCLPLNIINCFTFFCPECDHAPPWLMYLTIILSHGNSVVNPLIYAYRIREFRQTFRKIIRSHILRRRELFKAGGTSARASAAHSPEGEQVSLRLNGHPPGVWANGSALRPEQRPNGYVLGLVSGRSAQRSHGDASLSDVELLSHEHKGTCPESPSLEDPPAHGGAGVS", "conditions": "guinea pig; read-out: EC50, adenosine A2A receptor, isolated heart preparation; cited from earlier work"}, "[12]": {"system": "human macrophage cell line U937", "assay": "LPS induced TNF alpha release in U937 cells", "format": "cell-based", "conditions": "100 ng/ml LPS, 3 hours", "experimental": "Cells of human macrophage cell line U937 were grown in suspension to 500,000 cells/ml, plated out into 48 well plates, treated with 20 ng/ml PMA and incubated for 8 hours. Cells adhered to well bottoms and were washed and allowed to recover for 36 hours before use. […] After 3 hours the cell supernatants were assayed for TNF alpha using fluorescence labeled ELISA kits."}, "adenosine receptors": {"molecular_target": "adenosine receptors (Rattus norvegicus, UniProt P30543)", "sequence (P30543 whole entry)": "as the sequence (P30543 whole entry) above", "assay": "EC50 at adenosine receptors measured at pH 7.4", "format": "biochemical", "conditions": "measured at pH7.4", "description": "as §1, §2"}, "[13]": {"system": "carageenan-induced inflammation", "conditions": "rats, 20 mg/kg po; cited from earlier work"}, "[14]": {"molecular_target": "T3, rat adenosine A1 receptor (Rattus norvegicus, UniProt P25099)", "T3 sequence (P25099 1-326)": "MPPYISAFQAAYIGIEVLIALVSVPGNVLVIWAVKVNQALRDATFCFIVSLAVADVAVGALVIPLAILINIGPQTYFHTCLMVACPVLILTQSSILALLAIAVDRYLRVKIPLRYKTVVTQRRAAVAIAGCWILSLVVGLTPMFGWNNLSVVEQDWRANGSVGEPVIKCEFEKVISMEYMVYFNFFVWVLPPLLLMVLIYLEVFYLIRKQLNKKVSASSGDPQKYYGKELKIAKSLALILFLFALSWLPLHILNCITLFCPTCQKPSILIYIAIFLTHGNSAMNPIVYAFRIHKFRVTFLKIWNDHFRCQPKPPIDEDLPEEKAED", "conditions": "cited from earlier work"}}, "note": "Values joined by “and” are separate entries in the source; they are usually repeats but may differ in a detail not shown here. Equal values may be shown once. Read-outs that look alike come from different tables or passages of the source."}
{"compound": "COc1nc(N)c2ncn([C@@H]3O[C@H](CO)[C@@H](O)[C@H]3O)c2n1", "note": "[Compound 1, 2-methoxyadenosine]", "values": [{"measurement": "inhibition of thermal hyperalgesia (paw withdrawal latencies)", "setting": "[1]", "result": "inhibits thermal hyperalgesia"}, {"measurement": "efficacy compared with carbamazepine", "setting": "[1]; CBZ 100 mg/kg s.c.", "result": "as, or more, effective than carbamazepine"}, {"measurement": "inhibition of static allodynia (paw withdrawal threshold)", "setting": "[2]; […] p.o., presence and absence of naloxone (1 mg/kg s.c.)", "result": "inhibits static allodynia"}, {"measurement": "inhibition of static allodynia (paw withdrawal threshold)", "setting": "[2]; p.o., dose response", "result": "inhibit static allodynia"}, {"measurement": "inhibition of carrageenan induced inflammation (paw volume)", "setting": "[3]", "result": "inhibits carrageenan (CGN) induced inflammation with comparable efficacy to indomethacin"}, {"measurement": "EC50", "setting": "adenosine A1 receptor", "result": 10, "unit": "µM"}, {"measurement": "reduction in heart rate", "setting": "[4]", "result": 25, "unit": "%"}, {"measurement": "reduction in mean blood pressure", "setting": "[4]", "result": 41, "unit": "%"}, {"measurement": "Tachycardia side effect", "setting": "[5]; single oral dose 0.2 mg", "result": "No"}, {"measurement": "Tachycardia side effect", "setting": "[5]; single oral dose 0.8 mg", "result": "No"}, {"measurement": "Tachycardia side effect", "setting": "[5]; single oral dose 3.5 mg", "result": "No"}, {"measurement": "Tachycardia side effect", "setting": "[5]; single oral dose 10.5 mg", "result": "No"}, {"measurement": "Tachycardia side effect", "setting": "[5]; single oral dose 21 mg", "result": "No"}, {"measurement": "Tachycardia side effect", "setting": "[5]; single oral dose 28 mg", "result": "Yes"}, {"measurement": "effect on blood pressure", "setting": "[6]; 62.4 and 624 μg/kg i.p.", "result": "do not affect blood pressure"}, {"measurement": "effect on blood pressure", "setting": "[6]; normal rats, 0.624 mg/kg p.o.", "result": "no significant effect"}, {"measurement": "effect on heart rate", "setting": "[6]; normal rats, 0.624 mg/kg p.o.", "result": "no significant effect"}, {"measurement": "EC50", "setting": "rat A2A receptor", "result": 3, "unit": "µM"}, {"measurement": "Cmax", "setting": "[7]; single oral dose 0.2 mg", "result": "10 ± 5", "unit": "nM"}, {"measurement": "Cmax", "setting": "[7]; single oral dose 0.8 mg", "result": "40 ± 20", "unit": "nM"}, {"measurement": "Cmax", "setting": "[7]; single oral dose 3.5 mg", "result": "130 ± 40", "unit": "nM"}, {"measurement": "Cmax", "setting": "[7]; single oral dose 10.5 mg", "result": "300 ± 40", "unit": "nM"}, {"measurement": "Cmax", "setting": "[7]; single oral dose 21 mg", "result": "500 ± 100", "unit": "nM"}, {"measurement": "Cmax", "setting": "[7]; single oral dose 28 mg", "result": "600 ± 100", "unit": "nM"}, {"measurement": "inhibition of carrageenan induced thermal hyperalgesia", "setting": "[8]", "result": "inhibits carrageenan (CGN) induced thermal hyperalgesia (CITH) with comparable efficacy to indomethacin"}, {"measurement": "EC50", "setting": "adenosine A2A receptor [9]", "result": "~1000", "unit": "nM"}, {"measurement": "Ki", "setting": "[10]; pH 5.5, read-out: (Ki) nM (pH 5.5)", "result": 1.5, "unit": "nM"}, {"measurement": "Ki", "setting": "[10]; pH 7.4, read-out: (Ki) nM (pH 7.4)", "result": 1300, "unit": "nM"}, {"measurement": "affinity for adenosine receptors at pH below pH 7.4", "setting": "[10]; pH below pH 7.4 compared with pH 7.4", "result": "increased affinity"}, {"measurement": "EC50", "setting": "adenosine A2A receptor [11]", "result": 700, "unit": "nM"}, {"measurement": "inhibition of LPS induced TNF alpha release", "setting": "[12]", "result": "inhibits LPS induced TNF release"}, {"measurement": "EC50", "setting": "adenosine receptors", "result": "3.03 µM and 3 µM"}, {"measurement": "inhibition of carageenan-induced inflammation", "setting": "[13]", "result": 25, "unit": "%"}, {"measurement": "Kd", "setting": "[14]", "result": 340, "unit": "nM"}]}
